We go through one molecule from PMC11054271, “ABCG2 Transports the Flukicide Nitroxynil and Affects Its Biodistribution and Secretion into Milk” (Pharmaceutics, 2024).

On the set-up of data set [1]: method as in PMID 21657788. The note with it: cited from earlier work.
A further data set addresses T1, murine Abcg2 (Mus musculus, UniProt Q7TMS5).
T1 sequence (Q7TMS5 1-657): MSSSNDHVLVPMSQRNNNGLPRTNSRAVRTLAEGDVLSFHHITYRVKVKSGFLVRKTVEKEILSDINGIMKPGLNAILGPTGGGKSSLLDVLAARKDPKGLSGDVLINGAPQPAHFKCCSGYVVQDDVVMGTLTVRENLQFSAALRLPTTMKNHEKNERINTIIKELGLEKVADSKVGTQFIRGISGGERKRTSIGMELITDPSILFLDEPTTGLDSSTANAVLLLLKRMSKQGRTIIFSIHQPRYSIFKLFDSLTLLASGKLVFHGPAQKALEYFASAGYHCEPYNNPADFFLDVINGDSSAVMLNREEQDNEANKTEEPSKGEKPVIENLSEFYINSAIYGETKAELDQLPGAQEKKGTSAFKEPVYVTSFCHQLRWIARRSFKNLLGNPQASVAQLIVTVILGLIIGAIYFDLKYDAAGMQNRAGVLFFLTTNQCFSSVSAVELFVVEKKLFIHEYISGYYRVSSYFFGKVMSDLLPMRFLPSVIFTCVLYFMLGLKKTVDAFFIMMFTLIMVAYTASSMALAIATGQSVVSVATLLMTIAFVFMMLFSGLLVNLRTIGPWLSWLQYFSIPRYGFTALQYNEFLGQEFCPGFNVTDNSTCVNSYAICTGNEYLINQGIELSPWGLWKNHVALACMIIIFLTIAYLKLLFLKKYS
The data set is described as follows: Plasma pharmacokinetics in wild-type and Abcg2−/− male mice. The settings on record: 10 mg/kg s.c. More on the design: from tissue; host or cells: whole animal: wild-type vs Abcg2-/- mice, >99% FVB/N background. In kind it is in vivo. The protocol: All in vivo experiments were carried out using wild-type and Abcg2^−/− mice aged between 8 and 17 weeks, all of >99% FVB/N genetic background, generated and gently supplied by A. H. Schinkel (Netherlands Cancer Institute). Mice were housed and handled complying with institutional and ARRIVE guidelines and European legislation (EU Directive 2010/63/EU for animal experiments). Additionally, experimental procedures were approved by the Animal Care and Use Committee of the University of León and the Junta de Castilla y León (ULE_011_2019).
For pharmacokinetic experiments, a single dose of nitroxynil at 10 mg/kg was administered subcutaneously to wild-type and Abcg2^−/− male mice (n = 4–5, for each time point). Distomicide® (250 mg/mL) commercial solution was dissolved in saline (sodium chloride 0.9%) and dosed at 200 μL per 30 g body weight. Blood samples were collected at different time points (0.5, 3, 4.5, 6, 24, 48 and 96 h) and heparinized blood samples were centrifugated for 15 min at 3000× g. […]
Plasma, milk and tissue samples from each animal were individually processed and analyzed without pooling, while samples from transport assays were not processed. […]
Waters 2695 separation module and Waters 2998 UV photodiode array detector set at 270 nm were used for samples analysis. […] Limit of detection (LOD) and quantification (LOQ) were calculated as previously described. […]

For `N#Cc1cc(I)c(O)c([N+](=O)[O-])c1` [nitroxynil], in data set [1], the “Time after treatment at which residues have been found in milk” value was “up to 58 days”. Also, at murine Abcg2 (FVB/N, mouse, plasma, sc, wild-type male mice, 0.5-96 h), the AUC is 1920 ± 49.1 µg·h/mL. In addition, the “Plasma AUC, fold higher in Abcg2−/− compared with wild-type” value on murine Abcg2 (male mice) is on record as 1.8 fold.

By AUC is commonly meant the area under the concentration-time curve, a measure of exposure.
